Data published in US20020169101A1, “Treatment of sexual dysfunction” (priority 1999, published 2002).

Tests used:
[1] = system: penile intracavernosal pressure; test: Pelvic nerve-stimulated penile intracavernosal pressure in the anaesthetised rabbit model of erection; format: in vivo; details: Compound 3 (10 mg/kg sc) concomitant with a selective PDE5 inhibitor (1 mg/kg iv), vs Compound 3 alone, anaesthetised rabbit (FIG. 26)
Protocol: Male New Zealand rabbits (˜2.5kg) were pre-medicated with a combination of Medetomidine (Domitor®) 0.5 ml/kg i.m., and Ketamine (Vetalar®)) 0.25 ml/kg i.m. whilst maintaining oxygen intake via a face mask. The rabbits were tracheotomised using a PorteXTM uncuffed endotracheal tube 3 ID., connected to ventilator and maintained at a ventilation rate of 30-40 breaths per minute, with an approximate tidal volume of 18-20 ml, and a maximum airway pressure of 10 cm H2O. Anaesthesia was then switched to Isoflurane and ventilation continued with O2 at 21/min. The right marginal ear vein was cannulated using a 23G or 24G catheter, and Lactated Ringer solution perfused at 0.5 ml/min. The rabbit was maintained at 3% Isoflurane during invasive surgery, dropping to 2% for maintenance anaesthesia. The left jugular vein was exposed, isolated and then cannulated with a PVC catheter (17G) for the infusion of drugs and compounds.
The left groin area of the rabbit was shaved and a vertical incision was made approximately 5 cm in length along the thigh. […] Systolic and diastolic pressures were measured, and the mean arterial pressure calculated using the formula (diastolic x2+systolic)÷3. Heart rate was measured via the pulse oxymeter and Po-ne-mah data acquisition software system (Ponemah Physiology Platform, Gould Instrument Systems Inc). […]

[2] = system: sexual behaviour of normal male rats; test: Sexual behaviour of normal (sexually vigorous) male rats; format: in vivo, rat; details: Compound (1) 15 mg/kg or Fluoxetine 20 mg/kg i.p. 1 h before test
Protocol: The potentially stimulatory effect of Compound (1) on male sexual behaviour has been tested on sexually vigorous rats. Sprague Dawley male rats (Charles River, UK) were kept, 4 rats per cage, in a reversed lighting regime (12:12 hours, lights off at 5.00 h), with free access to food and water. The rats were pre-selected by being presented with a receptive female at 4 days intervals, i.e. every third day (having 2 clear days between presentations) until completing 6-7 […] of baseline determination. The animals showing consistently vigorous behaviour (ejaculatory latencies <300s) were chosen for further experiments (n—24). Animals were randomised into three groups. All animals received all three treatments following a latin-square design. Treatments were administered once a week, with a baseline test in between treatments (4 days intervals between baseline and test day). Treatments were Compound (1) (15 mg/kg, dissolved in 50% 2-hydroxypropyl-β-cyclodextrin in saline), vehicle, or Fluoxetine (20 mg/kg dissolved in 100% DMSO). All treatments were administered i.p. in a 1 ml/kg volume, 1 h before tests.
For all the sexual behaviour tests, the males were placed in an observation arena (50-60 cm diameter), starting 5 hours into the dark cycle and observed under red illumination. Three to 4 minutes after placing the male in the arena, a receptive female (ovariectomised, bearing a 7 mm Silastic implant of oestradiol benzoate) was introduced to the arena and the following parameters noted: Mount Latency: time (in seconds) taken between introduction of female and first mount. A maximum time of 15 minutes (900 seconds) was allowed, and the test terminated if no mounts were recorded within that time (FIG. 11), Intromission Latency: time (in seconds) taken between introduction of female and first intromission (FIG. 12), Number of Mounts: to reach ejaculation. When ejaculation was not reached, the number of mounts was not analyzed, Number of Intromissions: to reach ejaculation. When ejaculation was not reached, the number of intromissions was not analyzed (FIG. 13 is number of mounts+intromissions), Ejaculation Latency: time (in seconds) taken from first intromission to ejaculation. A maximum time of 30 minutes (1800 seconds) was given, and the test terminated if ejaculation was not achieved in that time (FIG. 14), and Refractory Period: time (in seconds) taken from ejaculation to the first mount of the next series of sexual activity. In those animals reaching ejaculation the test was terminated at the end of the refractory period, as indicated by the first mount of the next sexual cycle (FIG. 15).
A one-way ANOVA followed by Dunnett's t test was used to compare treated vs vehicle groups each day of testing, for all the sexual behaviour parameters. (*P<0.05, **P<0.01; n=15-16).

Compound	pelvic nerve-stimulated intracavernosal pressure (ICP) [1]	pelvic nerve-stimulated intracavernosal pressure (ICP) ([1]; listed as compound 3)	Mount Latency ([2]; vs vehicle (FIG. 11))	Intromission Latency ([2]; vs vehicle (FIG. 12))	number of mounts and intromissions required to achieve ejaculation ([2]; vs vehicle (FIG. 13))	Ejaculation Latency ([2]; vs vehicle (FIG. 14))	Refractory Period ([2]; vs vehicle (FIG. 15))
C[C@@](Cc1c[nH]c2ccccc12)(NC(=O)Nc1ccc([N+](=O)[O-])cc1)C(=O)NCC1(c2ccc(N)cc2)CCCCC1 [Compound 3, (2S)-N-{[1-(4-aminophenyl)cyclohexyl]methyl}-3-(1H-indol-3-yl)-2-methyl-2-{[(4-nitroanilino)-carbonyl]amino}propanamide]	marked enhancement of the ICP	marked enhancement of intracavernosal pressure	–	–	–	–	–
COc1ccc(C2(CNC(=O)[C@](C)(Cc3c[nH]c4ccccc34)NC(=O)Nc3ccc([N+](=O)[O-])cc3)CCCCC2)nc1 [Compound (1), (S) 3-(1H-Indol-3-yl)-N-[1-(5-methoxy-pyridin-2-yl)-cyclohexyl-methyl]-2-methyl-2-[3-(4-nitro-phenyl)-ureido]-propionamide]	–	–	no effect on any of the parameters studied	no effect on any of the parameters studied	no effect on any of the parameters studied	no effect on any of the parameters studied	no effect on any of the parameters studied
